US20260285853A1, “COMPOUNDS AND METHODS FOR MODULATING SPLICING” (REMIX THERAPEUTICS INC., priority 2023, published 2026)

What was measured:
Type in all cases: cell-based
[1] = system: HTT mRNA; experiment: Splicing RT-qPCR assay (THP), Table 2A
[2] = system: MYB mRNA; experiment: Splicing RT-qPCR assay (THP), Table 2A
[3] = system: HTT mRNA; experiment: Splicing RT-qPCR assay, canonical (CJ) and alternative (AJ) junction mRNA, K562 cells; conditions: Homo sapiens, K562.3 cells, 24 hours; for AC50: read-out: HTT AJ (AC50, increase in AJ mRNA); for IC50: read-out: HTT CJ (IC50, decrease in CJ mRNA)
Summary of the method: (§1)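 K562 (IMDM, 10% FBS); 11-pt 3-fold series, top 10 uM final; DMSO ≤0.25%; 24 h, 37 °C, 5% CO2. Lysis with DNase I, 1-step TaqMan RT-qPCR. ΔΔCt vs housekeeper (GAPDH/GUSB) and DMSO, then RQ and % response.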

[4] = system: MYB mRNA; experiment: as above; conditions: Homo sapiens, K562.3 cells, 24 hours; for AC50: read-out: MYB AJ (AC50, increase in AJ mRNA); for IC50: read-out: MYB CJ (IC50, decrease in CJ mRNA)
Summary of the method: as §1

[5] = Table 2A (THP), AJ mRNA increase, read-out: HTT AJ (increase in alternative junction mRNA, AC50)
[6] = Table 2A (THP), CJ mRNA decrease, read-out: HTT CJ (decrease in canonical junction mRNA, IC50)
[7] = Table 2A (THP), AJ mRNA increase, read-out: MYB AJ (increase in alternative junction mRNA, AC50)
[8] = Table 2A (THP), CJ mRNA decrease, read-out: MYB CJ (decrease in canonical junction mRNA, IC50)

IC50 [1, 6] [µM] | IC50 [2, 8] [µM] | IC50 [3] [µM] | IC50 [4] [µM] | IC50 ([1]; Table 2A, THP, HTT canonical junction (CJ) mRNA, read-out: HTT CJ (IC50, decrease in canonical junction mRNA)) [µM] | IC50 ([2]; Table 2A, THP, MYB canonical junction (CJ) mRNA, read-out: MYB CJ (IC50, decrease in canonical junction mRNA)) [µM] | Structure (SMILES) | AC50 [1, 5] [µM] | AC50 [2, 7] [µM] | AC50 [3] [µM] | AC50 [4] [µM] | AC50 ([1]; Table 2A, THP, HTT alternative junction (AJ) mRNA, read-out: HTT AJ (AC50, increase in alternative junction mRNA)) [µM] | AC50 ([2]; Table 2A, THP, MYB alternative junction (AJ) mRNA, read-out: MYB AJ (AC50, increase in alternative junction mRNA)) [µM]
> 10 | > 10 | > 10 | > 10 |  |  | CCNC1CCN(c2ccc(C(=O)Nc3cc4cn(C)nc4cc3O)c3[nH]ccc23)CC1 [Compound 190, 4-[4-(ethylamino)-1-piperidyl]-N-(6-hydroxy-2-methyl-indazol-5-yl)-1H-indole-7-carboxamide] | > 10 | > 10 | > 10 | > 10 |  | 
> 10 | > 10 | > 10 | > 10 |  |  | Cc1cn2cc(NC(=O)c3ccc(N4CCNCC4=O)c4[nH]cnc34)cc(F)c2n1 [Compound 257, N-(8-fluoro-2-methyl-imidazo[1,2-a]-pyridin-6-yl)-7-(2-oxopiperazin-1-yl)-1H-benzimidazole-4-carboxamide] | > 10 | > 10 | > 10 | > 10 |  | 
> 10 | < 0.1 | > 10 | 0.1 to 1 |  |  | Cc1cn2cc(NC(=O)c3c(F)cc(N4CC[C@H](NCC56CC(CO5)C6)C4)c4cn(C)nc34)cc(F)c2n1 [Compound 157, 6-fluoro-N-(8-fluoro-2-methyl-imidazo[1,2-a]pyridin-6-yl)-2-methyl-4-[(3S)-3-(2-oxabicyclo[2.1.1]hexan-1-ylmethylamino)pyrrolidin-1-yl]indazole-7-carboxamide] | > 10 | < 0.1 | > 10 | < 0.1 |  | 
< 0.1 | < 0.1 | < 0.1 | < 0.1 |  |  | CNC1(C)CCN(c2ccc(C(=O)Nc3cn4cc(C)nc4c(OC)n3)c3nn(C)cc23)CC1 [Compound 197, N-(8-methoxy-2-methylimidazo[1,2-a]pyrazin-6-yl)-2-methyl-4-(4-methyl-4-(methylamino)piperidin-1-yl)-2H-indazole-7-carboxamide] | < 0.1 | < 0.1 | < 0.1 | < 0.1 |  | 
> 10 | 0.1 to 1 | > 10 | 0.1 to 1 |  |  | COCCN[C@@H]1CCN(c2ccc(C(=O)Nc3cc(F)c4nc(C)cn4c3)c3nn(C)cc23)C1 [Compound 113, N-(8-fluoro-2-methyl-imidazo[1,2-a]pyridin-6-yl)-4-[(3R)-3-(2-methoxyethylamino)pyrrolidin-1-yl]-2-methyl-indazole-7-carboxamide] | > 10 | 0.1 to 1 | > 10 | 0.1 to 1 |  | 
 |  | 0.1 to 1 | < 0.1 | 0.1 to 1 | < 0.1 | COc1c(NC(=O)c2c(F)cc(N3CCNCC3)c3cn[nH]c23)cn2cc(C)nc2c1F [Compound 607, 6-fluoro-N-(8-fluoro-7-methoxy-2-methyl-imidazo[1,2-a]pyridin-6-yl)-4-piperazin-1-yl-1H-indazole-7-carboxamide] |  |  | 1 to 10 | < 0.1 | 1 to 10 | < 0.1
0.1 to 1 | < 0.1 | 0.1 to 1 | < 0.1 |  |  | Cc1cn2cc(NC(=O)c3ccc(N4CCC(NC5CC5)CC4)c4cc(C)nn34)cc(F)c2n1 [Compound 209, 4-[4-(cyclopropylamino)-1-piperidyl]-N-(8-fluoro-2-methyl-imidazo[1,2-a]pyridin-6-yl)-2-methyl-pyrazolo[1,5-a]pyridine-7-carboxamide] | 0.1 to 1 | < 0.1 | 0.1 to 1 | < 0.1 |  | 
> 10 | 1 to 10 | 1 to 10 | > 10 |  |  | CCNC1CCN(c2ccc(C(=O)Nc3cc(F)c4nc(C(C)C)cn4c3)c3nn(C)cc23)CC1 [Compound 177, 4-[4-(ethylamino)-1-piperidyl]-N-(8-fluoro-2-isopropyl-imidazo[1,2-a]pyridin-6-yl)-2-methyl-indazole-7-carboxamide] | > 10 | > 10 | > 10 | > 10 |  | 
1 to 10 | 1 to 10 | 1 to 10 | 1 to 10 |  |  | CCNC1CCN(c2ccc(C(=O)Nc3cc(F)c4nc(CC)cn4c3)c3nn(C)cc23)CC1 [Compound 201, 4-[4-(ethylamino)-1-piperidyl]-N-(2-ethyl-8-fluoro-imidazo[1,2-a]pyridin-6-yl)-2-methyl-indazole-7-carboxamide] | 1 to 10 | 1 to 10 | 1 to 10 | 1 to 10 |  | 
> 10 | < 0.1 | 1 to 10 | < 0.1 |  |  | Cn1cc2cc(NC(=O)c3c(O)cc(N4CC[C@@H](NC5CC5)C4)c4cn(C)nc34)cc(F)c2n1 [Compound 291, 4-[(3R)-3-(cyclopropylamino)pyrrolidin-1-yl]-N-(7-fluoro-2-methyl-indazol-5-yl)-6-hydroxy-2-methyl-indazole-7-carboxamide] | 1 to 10 | < 0.1 | 1 to 10 | < 0.1 |  | 
> 10 | 1 to 10 | 1 to 10 | 1 to 10 |  |  | CN[C@H]1CCN(c2c(O)cc(C(=O)Nc3cc(F)c4nc(C)cn4c3)c3nn(C)cc23)C1 [Compound 149, N-(8-fluoro-2-methyl-imidazo[1,2-a]pyridin-6-yl)-5-hydroxy-2-methyl-4-[(3S)-3-(methylamino)pyrrolidin-1-yl]-indazole-7-carboxamide] | > 10 | > 10 | > 10 | 1 to 10 |  | 
0.1 to 1 | < 0.1 | 0.1 to 1 | 0.1 to 1 |  |  | CCNC1CCN(c2ccc(C(=O)Nc3cc(F)c4nc(C)oc4c3)c3nn(C)cc23)CC1 [Compound 200, 4-(4-(ethylamino)piperidin-1-yl)-N-(4-fluoro-2-methylbenzo[d]-oxazol-6-yl)-2-methyl-2H-indazole-7-carboxamide] | 1 to 10 | < 0.1 | 1 to 10 | < 0.1 |  | 
> 10 | > 10 | > 10 | > 10 |  |  | Cc1cn2cc(NC(=O)c3c(F)cc(N4CCNCC4)c4occc34)cc(F)c2n1 [Compound 247, 5-fluoro-N-(8-fluoro-2-methylimidazo-[1,2-a]pyridin-6-yl)-7-piperazin-1-yl-benzofuran-4-carboxamide] | > 10 | > 10 | > 10 | > 10 |  | 
1 to 10 | < 0.1 | 1 to 10 | 0.1 to 1 |  |  | CN[C@@H]1C[C@@H](C)N(c2ccc(C(=O)Nc3cc(F)c4nc(C)cn4c3)c3nn(C)cc23)C1 [Compound 129, N-(8-fluoro-2-methyl-imidazo[1,2-a]pyridin-6-yl)-2-methyl-4-[(2R,4R)-2-methyl-4-(methylamino)pyrrol-idin-1-yl]indazole-7-carboxamide] | 1 to 10 | 0.1 to 1 | 1 to 10 | 0.1 to 1 |  | 
> 10 | > 10 | > 10 | > 10 |  |  | CCNC1CCN(c2ccc(C(=O)Nc3cc(F)c4nc(C)c(C)n4c3)c3nn(C)cc23)CC1 [Compound 188, 4-[4-(ethylamino)-1-piperidyl]-N-(8-fluoro-2,3-dimethyl-imidazo[1,2-a]pyridin-6-yl)-2-methyl-indazole-7-carboxamide] | > 10 | > 10 | > 10 | > 10 |  | 
